We go through 36 compounds from paper PMC11995724, “Antibiotic target discovery by integrated phenotypic and activity-based profiling of electrophilic fragments” (Cell chemical biology, 2025).

What is called viability is a read-out of living cells in per cent, often relative to untreated cells.

The structures appear in SMILES notation.

This data set can be described thus: in vitro. The note with it: human, hek293t cells.
Consider `C=CC(=O)N1CCC(C(=O)N2CCCC(c3cnn(C)c3)C2)CC1` (stereo not drawn) [2-N16, 1-{4-[3-(1-methyl-1H-pyrazol-4-yl)piperidine-1-carbonyl]piperidin-1-yl}prop-2-en-1-one], for which the viability at 48 h, 25 µM is 99.6%.

On to `C=CC(=O)N(C)Cc1noc(C2CC2)n1` [2-N17, N-[(5-cyclopropyl-1,2,4-oxadiazol-3-yl)methyl]-N-methylprop-2-enamide], for which the viability at 48 h, 25 µM was 60.3%.

Consider `C=CC(=O)Nc1ccc(C(=O)N2CCCCC2CS(C)(=O)=O)cc1` (stereo not drawn) [2-N18, N-{4-[2-(methanesulfonylmethyl)piperidine-1-carbonyl]phenyl}prop-2-enamide], for which the viability at 48 h, 25 µM amounted to 102%.

`C=CC(=O)NCc1ncccc1-n1cccn1` [2-N19, N-{[3-(1H-pyrazol-1-yl)pyridin-2-yl]methyl}prop-2-enamide]: the viability at 48 h, 25 µM is 70.3%.

Take `C=CC(=O)N1CCC(C(=O)N2CCCCCC2c2ccco2)CC1` (stereo not drawn) [2-N20, 1-{4-[2-(furan-2-yl)azepane-1-carbonyl]piperidin-1-yl}prop-2-en-1-one]: the viability at 48 h, 25 µM amounted to 80.3%.

As for `C=CC(=O)N1CSCC1C(=O)N1CCOCC1` (stereo not drawn) [2-N21, 1-[4-(morpholine-4-carbonyl)-1,3-thiazolidin-3-yl]prop-2-en-1-one], the viability at 48 h, 25 µM came to 74.9%.

In the case of `C=CC(=O)N(C)CC(=O)N1CCC2(CC1)CC2c1nnc(C(C)C)o1` (stereo not drawn) [2-N22, N-methyl-N-(2-oxo-2-{1-[5-(propan-2-yl)-1,3,4-oxadiazol-2-yl]-6-azaspiro[2.5]octan-6-yl}ethyl)prop-2-enamide], the viability at 48 h, 25 µM was found to be 84.6%.

As to `C=CC(=O)NCCc1ccccc1OC` [2-O03, N-[2-(2-methoxyphenyl)ethyl]prop-2-enamide], the viability at 48 h, 25 µM stood at 105%.

Consider `C=CC(=O)N1CCC(c2nc(C3CCC3)no2)CC1` [2-O04, 1-[4-(3-cyclobutyl-1,2,4-oxadiazol-5-yl)piperidin-1-yl]prop-2-en-1-one], for which the viability at 48 h, 25 µM is 84.1%.

Regarding `C=CC(=O)N(Cc1ccc2cnn(C)c2c1)CC(C)(C)C` [2-O05, N-(2,2-dimethylpropyl)-N-[(1-methyl-1H-indazol-6-yl)methyl]prop-2-enamide], the viability at 48 h, 25 µM was 102%.

For `C=CC(=O)NCCNC(=O)C1CC12CCSCC2` (stereo not drawn) [2-O06, N-[2-({6-thiaspiro[2.5]octan-1-yl}formamido)ethyl]prop-2-enamide], the viability at 48 h, 25 µM was 88.3%.

In the case of `C=CC(=O)Nc1ccnn1C(C)C` [2-O07, N-[1-(propan-2-yl)-1H-pyrazol-5-yl]prop-2-enamide], the viability at 48 h, 25 µM amounted to 101%.

In the case of `C=CC(=O)NCCC(=O)NC1CCCCC12OCCO2` (stereo not drawn) [2-O08, N-[2-({1,4-dioxaspiro[4.5]decan-6-yl}carbamoyl)ethyl]prop-2-enamide], the viability at 48 h, 25 µM turned out to be 106%.

As to `C=CC(=O)N(CC)Cc1cn(C)nn1` [2-O09, N-ethyl-N-[(1-methyl-1H-1,2,3-triazol-4-yl)methyl]prop-2-enamide], the viability at 48 h, 25 µM is 105%.

For the compound `C=CC(=O)N1CCC(Cc2ccccc2)CC1` [2-O10, 1-(4-benzylpiperidin-1-yl)prop-2-en-1-one], the viability at 48 h, 25 µM amounted to 73%.

For `C=CC(=O)NCc1ccccc1CN1C(=O)NC2(CCCCC2)C1=O` [2-O11, N-{[2-({2,4-dioxo-1,3-diazaspiro[4.5]decan-3-yl}methyl)phenyl]methyl}prop-2-enamide], the viability at 48 h, 25 µM was 71%.

With `C=CC(=O)Nc1cccc(C(F)(F)CF)c1` [2-O12, N-[3-(1,1,2-trifluoroethyl)phenyl]prop-2-enamide], the viability at 48 h, 25 µM was found to be 98.8%.

With `C=CC(=O)NCC1CCC2(CCCOC2)O1` (stereo not drawn) [2-O13, N-({1,7-dioxaspiro[4.5]decan-2-yl}methyl)prop-2-enamide], the viability at 48 h, 25 µM was determined as 168%.

Take `C=CC(=O)Nc1cnc(S(C)(=O)=O)c(C)c1` [2-O14, N-(6-methanesulfonyl-5-methylpyridin-3-yl)prop-2-enamide]: the viability at 48 h, 25 µM was 99.6%.

As to `C=CC(=O)N(C)Cc1conc1CC` [2-O15, N-[(3-ethyl-1,2-oxazol-4-yl)methyl]-N-methylprop-2-enamide], the viability at 48 h, 25 µM was 187%.

Turning to `C=CC(=O)N1CCOCC1c1cc(F)cc(F)c1` (stereo not drawn) [2-O16, 1-[3-(3,5-difluorophenyl)morpholin-4-yl]prop-2-en-1-one], the viability at 48 h, 25 µM worked out at 81.8%.

In the case of `C=CC(=O)NCCc1ccnn1C` [2-O17, N-[2-(1-methyl-1H-pyrazol-5-yl)ethyl]prop-2-enamide], the viability at 48 h, 25 µM turned out to be 178%.

In the case of `C=CC(=O)N(C)c1ccccc1C(=O)NC` [2-O18, N-methyl-2-(N-methylprop-2-enamido)benzamide], the viability at 48 h, 25 µM is 114%.

For `C=CC(=O)N1CCC(CC(C)(C)C)C1` (stereo not drawn) [2-O19, 1-[3-(2,2-dimethylpropyl)pyrrolidin-1-yl]prop-2-en-1-one], the viability at 48 h, 25 µM came to 147%.

`C=CC(=O)NCC1(c2ccccc2)CC1(F)F` (stereo not drawn) [2-O20, N-[(2,2-difluoro-1-phenylcyclopropyl)methyl]prop-2-enamide]: the viability at 48 h, 25 µM came out at 113%.

Regarding `C=CC(=O)Nc1ccc(C(=O)N2C[C@H](O)C[C@H]2C(=O)OC)cc1` [2-O21, methyl (2S,4R)-4-hydroxy-1-[4-(prop-2-enamido)benzoyl]pyrrolidine-2-carboxylate], the viability at 48 h, 25 µM came to 145%.

Take `C=CC(=O)NC1CC(=O)N(CC)C1` (stereo not drawn) [2-O22, N-(1-ethyl-5-oxopyrrolidin-3-yl)prop-2-enamide]: the viability at 48 h, 25 µM stood at 91.7%.

With `C=CC(=O)NCCc1ccn(-c2ccc(F)cc2)n1` [2-P03, N-{2-[1-(4-fluorophenyl)-1H-pyrazol-3-yl]ethyl}prop-2-enamide], the viability at 48 h, 25 µM was 70.4%.

For `C=CC(=O)N1CCC(C(=O)N(C)C(C)c2sc(CC)nc2C)CC1` (stereo not drawn) [2-P04, N-[1-(2-ethyl-4-methyl-1,3-thiazol-5-yl)ethyl]-N-methyl-1-(prop-2-enoyl)piperidine-4-carboxamide], the viability at 48 h, 25 µM turned out to be 95.1%.

In the case of `C=CC(=O)NC(C)C1(S(C)(=O)=O)CC1` (stereo not drawn) [2-P05, N-[1-(1-methanesulfonylcyclopropyl)ethyl]prop-2-enamide], the viability at 48 h, 25 µM was 84.3%.

For `C=CC(=O)N1CCC(C(=O)N2CCCC(O)C2)(c2ccccc2)CC1` (stereo not drawn) [2-P06, 1-[4-(3-hydroxypiperidine-1-carbonyl)-4-phenylpiperidin-1-yl]prop-2-en-1-one], the viability at 48 h, 25 µM amounted to 93.3%.

Take `C=CC(=O)NCCN1C(=O)COc2ccccc21` [2-P07, N-[2-(3-oxo-3,4-dihydro-2H-1,4-benzoxazin-4-yl)ethyl]prop-2-enamide]: the viability at 48 h, 25 µM amounted to 60.4%.

Regarding `C=CC(=O)NCc1ccc(C(=O)N2CCC(c3nc(C)no3)C2)cc1` (stereo not drawn) [2-P08, N-({4-[3-(3-methyl-1,2,4-oxadiazol-5-yl)pyrrolidine-1-carbonyl]phenyl}methyl)prop-2-enamide], the viability at 48 h, 25 µM is 52.5%.

Turning to `C=CC(=O)NCC1OCCc2sc(F)cc21` (stereo not drawn) [2-P09, N-({2-fluoro-4H,6H,7H-thieno[3,2-c]pyran-4-yl}methyl)prop-2-enamide], the viability at 48 h, 25 µM came to 72.3%.

For `C=CC(=O)N1CCC(C(=O)N2CCCCC(SCC)C2)CC1` (stereo not drawn) [2-P10, 1-{4-[3-(ethylsulfanyl)azepane-1-carbonyl]piperidin-1-yl}prop-2-en-1-one], the viability at 48 h, 25 µM stood at 108%.

For `C=CC(=O)NCCCn1cnc2ccccc21` [2-P11, N-[3-(1H-1,3-benzodiazol-1-yl)propyl]prop-2-enamide], the viability at 48 h, 25 µM turned out to be 62%.
